Experimental data published in patent US9243281B2, “Neuroprotective chemicals and methods for identifying and using same” (Board of Regents of The University of Texas System, priority 2013, dated 2016).

Key:
[1] = system: hippocampal neurogenesis (Dentate Gyrus); assay: in vivo neurogenesis assay (BrdU+ cells in dentate gyrus); set-up: species or system mice; conditions: for Neurogenesis # BrdU+ Cells (X10E06)/mm3 Dentate Gyrus: living mice, vehicle (DMSO) 7.3
In short: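 New hippocampal cells were tracked by daily BrdU injections and anti-BrdU staining of brain sections. Adult mice (two per pool of ten compounds) got week-long intracerebroventricular infusion by mini-pump, dosed for mid-nanomolar exposure.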

p70 (NAMPT) = target: T1, p70 (NAMPT) (Homo sapiens, UniProt P43490); assay: binding competition for photo-crosslinking of P7C3-S326 to p70 in H2122 cells; conditions: 0.3 μM P7C3-S326 plus 5 μM competitor, p70 band intensity, P7C3-S326 alone compared with plus competitor, vehicle 1.0
T1 construct: endogenous in cells; host or cells: H2122 lung cancer cells
T1 sequence (P43490 whole entry): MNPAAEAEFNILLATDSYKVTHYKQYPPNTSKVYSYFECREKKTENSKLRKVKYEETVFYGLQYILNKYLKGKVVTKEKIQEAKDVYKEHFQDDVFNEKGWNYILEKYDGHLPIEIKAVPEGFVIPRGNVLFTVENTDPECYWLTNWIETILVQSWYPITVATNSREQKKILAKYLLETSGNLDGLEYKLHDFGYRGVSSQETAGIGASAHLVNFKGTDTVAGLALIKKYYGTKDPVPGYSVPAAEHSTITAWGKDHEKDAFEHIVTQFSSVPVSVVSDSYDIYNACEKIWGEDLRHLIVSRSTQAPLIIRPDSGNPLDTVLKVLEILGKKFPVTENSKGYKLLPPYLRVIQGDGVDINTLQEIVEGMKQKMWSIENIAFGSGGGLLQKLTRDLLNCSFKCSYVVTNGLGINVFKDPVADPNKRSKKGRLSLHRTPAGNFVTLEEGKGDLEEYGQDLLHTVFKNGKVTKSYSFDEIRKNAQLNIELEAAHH
In short: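 Competition for photo-crosslinking: P7C3 analogs (5 uM) were added alongside the 0.3 μM P7C3-S326 probe to H2122 cells for 2 hours before 15 minutes of 306 nm UV irradiation. In-gel fluorescence of the p70 band after click labeling was normalized to DMSO.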

Human NAMPT = target: T2, Human NAMPT (Homo sapiens, UniProt P43490); assay: in vitro NAMPT coupled-enzyme assay (NADH at OD340 nm); type: biochemical; conditions: relative reaction rate normalized by the control reaction run prior to compound addition; vehicle 0.98
T2 construct: made in house; host or cells: E. coli
T2 sequence (P43490 whole entry): as above
Procedure: FIGS. 7A-7C. […] (FIG. 7A) P7C3-A20 was incubated at indicated concentrations in a reaction coupled with three enzymes; NAMPT, NMNAT, and ADH (Experimental Procedures). NAMPT activity was recorded for the indicated period of time at OD340 nm by measuring NADH appearance, leading to the indicated concentration-time plot. […] (FIG. 7B) Analysis of the activities of thirty P7C3 analogs was performed to assess their effects on NAMPT enzymatic activity. The reaction rate was calculated as the slope of the concentration-time curve. Relative reaction rate was normalized by the control reaction run prior to compound addition. Data represents the mean of experimental duplicates. Scatter graphs were plotted to compare the ability of compounds to activate NAMPT relative to their ability to compete away P7C3-S326 crosslinking (top scatter plot), ability to protect cells from doxorubicin-mediated toxicity (middle scatter plot), or ability to facilitate NAD restoration in doxorubicin-treated cells (bottom scatter plot). […] Data are expressed as mean±SD of duplicate independent assays.
The enzymatic activity of recombinant NAMPT was monitored in a coupled assay wherein nicotinamide conversion to NMN was followed by sequential production of NAD (via the NMNAT enzyme) and NADH (via alcohol dehydrogenase). To minimize variation, a control reaction was run in each assay prior to compound addition.
Briefly, NAMPT first converted nicotinamide to NMN, which was followed by sequential production of NAD via nicotinamide mononucleotide adenylyl-transferase (NMNAT). NAD was then reduced to NADH by alcohol dehydrogenase (Sigma) using alcohol as the substrate. The resulting NADH was monitored by OD340 nm. […] 10 mM stocks of P7C3 analogs in DMSO were further diluted in ethanol prior to applying to the reaction. To minimize variation, a control reaction was run in each assay prior to compound addition.

U2OS cells = assay: doxorubicin toxicity (dox:tox) protection assay, Cell Titer Glo cell survival; type: cell-based; conditions: cultured U2OS cells
Description: FIGS. 2A-2D. […] (FIG. 2A) Chemical structure of P7C3-S326. […] (FIG. 2C) Formulas used for calculating doxorubicin toxicity (dox:tox) protection activity. Protection activity is expressed by (Sinf−S0)/AC50 in the twelve-point dose response curve (DRC) corresponding to each compound, wherein both efficacy and potency of compounds were considered. Sinf represents the expected maximal protection. S0 is the baseline. […] In the photo-crosslinking assays, the p70 band intensity was quantified by Image J, and compared the sample of P7C3-S326 alone with that of P7C3-S326 plus competitor. Pearson correlation coefficient (r) and two tailed P value were determined by GraphPad Prism 6 and Spearman Rank Correlation (v1.0.1) software.
FIG. 10. Twelve-point dose response curves (DRC) of all tested compounds in doxorubicin toxicity protection assay. […] Cell viability was determined by Cell Titer Glo assay kit.
Cell survival assay was performed in 96-well plates using CellTiter-Glo Luminescent Cell Viability Assay kit (Promega) that measures cellular ATP content. The CellTiter-Glo reagent was diluted by adding 2 volumes of PBS containing 1% Triton X-100. 50 μl of diluted reagent was directly added to 100 μl of cell culture medium per well. Plates were incubated at room temperature for 10 minutes. Luminescence was recorded by Tecan […]luor Plus reader (Tecan). Cell survival was presented as the percentage of viable cells compared with untreated control, and mean±SD was calculated from duplicates. The dox:tox assay of P7C3 analogs was carried out in the HTS Core (University of Texas Southwestern Medical Center) using the EnVison multimode plate reader (Perkin Elmer).

[2] = system: NAD levels in doxorubicin-treated U2OS cells; assay: NAD rebound assay in doxorubicin-treated cells (NAD/NADH Glo); type: cell-based; conditions: 0.5 μM doxorubicin 45 h
Procedure: FIG. 12. Five-point dose response curves (DRC) of all tested compounds in NAD rebound assay. […] Cellular NAD abundance was determined by NAD/NADH Glo assay kit.
Each chemical variant of P7C3 was co-incubated with doxorubicin on cultured U2OS cells at five doses (0.03 uM, 0.1 uM, 0.3 uM, 1 uM and 3 uM). After 45 hrs incubation, cells were assayed for intracellular levels of NAD (FIG. 12).
Assay was performed following the manufacturer's protocol. NAD/NADH-Glo reagent contains the NAD Cycling Enzyme that converts NAD+ to NADH. In the presence of NADH, the enzyme reductase reduces a proluciferin reductase substrate to form luciferin. Cells were grown in 96- or 384-well plates. 50 μl or 15 μl of NAD/NADH-Glo™ Detection Reagent were added to each well. The resulting luminescence signals were measured by Tecan plate reader or EnVison multimode plate reader (Perkin Elmer).

Row | Structure (SMILES) | Neurogenesis # BrdU+ Cells (X10E06)/mm3 Dentate Gyrus [1] | Binding competition (p70 (NAMPT)) | NAMPT activation (Human NAMPT) | activity in the in vivo neurogenesis assay ([1]; mouse, in vivo) | protection from doxorubicin-mediated toxicity (dox:tox assay) (U2OS cells) | rebound of NAD levels (NAD/NADH-Glo kit) [2]
1 | COc1cccc(NCC(F)(F)Cn2c3ccc(Br)cc3c3cc(Br)ccc32)c1 [S59] | 10.7 (X10E06)/mm3 | 1.2 | 1.02 |  |  | 
2 | CS(=O)(=O)NC(=O)Cn1c2ccc(Br)cc2c2cc(Br)ccc21 [S232] | 8.4 (X10E06)/mm3 | 0.9 | 1.00 |  |  | 
3 | N#Cc1[nH]c2ccc(Br)cc2c1N [S222] | 15.1 (X10E06)/mm3 | 1.3 | 1.02 |  |  | 
4 | Brc1ccc2c(c1)c1cc(Br)ccc1n2Cc1nnn[nH]1 [S233] | 7.3 (X10E06)/mm3 | 0.9 | 0.88 |  |  | 
5 | NC(=O)Cn1c2ccc(Br)cc2c2cc(Br)ccc21 [S213] | 6.5 (X10E06)/mm3 | 1.1 | 1.00 |  |  | 
6 | O=C(Cn1c2ccc(Br)cc2c2cc(Br)ccc21)NS(=O)(=O)c1ccccc1 [S230] | 15.3 (X10E06)/mm3 | 1.0 | 1.02 |  |  | 
7 | CN1C(=O)CN=C(c2ccc(Cl)cc2)c2cc(Cl)ccc21 [S203] | 10.8 (X10E06)/mm3 | 3.9 | 1.00 |  |  | 
8 | Cc1cc2c(cn1)[nH]c1ccc(Br)cc12 [S226] | 12.8 (X10E06)/mm3 | 1.9 | 0.96 |  |  | 
9 | COc1cccc(NCC(Cn2c3ccc(Br)cc3c3cc(Br)ccc32)OC)c1 (centres unmarked) [S13] | 11.6 (X10E06)/mm3 | 1.7 | 1.21 |  |  | 
10 | COc1cccc(NCC(=O)Cn2c3ccc(Br)cc3c3cc(Br)ccc32)c1 [S3] | 9.2 (X10E06)/mm3 | 2.3 | 1.06 |  |  | 
11 | COc1cccc(N(C)CC(F)Cn2c3ccc(Br)cc3c3cc(Br)ccc32)c1 (centres unmarked) [S11] | 12.8 (X10E06)/mm3 | 2.0 | 1.21 |  |  | 
12 | N#CCn1c2ccc(Br)cc2c2cc(Br)ccc21 [S235] | 11.7 (X10E06)/mm3 | 1.8 | 0.97 |  |  | 
13 | CC(C)(C)OC(=O)NCC(F)Cn1c2ccc(Br)cc2c2cc(Br)ccc21 (centres unmarked) [S208] | 13.5 (X10E06)/mm3 | 1.2 | 1.16 |  |  | 
14 | C#CCOc1ccc(C(=O)c2ccc(C(=O)NCC(F)Cn3c4ccc(Br)cc4c4cc(Br)ccc43)cc2)cc1 (centres unmarked) [S326, N-(3-(3,6-dibromo-9H-carbazol-9-yl)-2-fluoropropyl)-4-(4-(prop-2-yn-1-yloxy)benzoyl)benzamide] |  |  | 1.10 | active | active | 
15 | O=S(=O)(CC(F)Cn1c2ccc(Br)cc2c2cc(Br)ccc21)c1cccc(O)c1 (centres unmarked) [S101] | 9.9 (X10E06)/mm3 | 2.4 | 1.12 |  |  | 
16 | COCCOCCOc1ccc(NCC(F)Cn2c3ccc(Br)cc3c3cc(Br)ccc32)cc1 (centres unmarked) [S66] | 9.7 (X10E06)/mm3 | 3.5 | 1.21 |  |  | 

Row | Structure (SMILES) | Neurogenesis # BrdU+ Cells (X10E06)/mm3 Dentate Gyrus [1] | Binding competition (p70 (NAMPT)) | NAMPT activation (Human NAMPT) | activity in the in vivo neurogenesis assay ([1]; mouse, in vivo) | protection from doxorubicin-mediated toxicity (dox:tox assay) (U2OS cells) | rebound of NAD levels (NAD/NADH-Glo kit) [2]
17 | c1ccc2c(c1)CCc1ccccc1N2 [S212] | 10.3 (X10E06)/mm3 | 1.0 | 1.04 |  |  | 
18 | FC(F)(COc1ccccc1)Cn1c2ccc(Br)cc2c2cc(Br)ccc21 [S56] | 8.4 (X10E06)/mm3 | 1.0 | 1.06 |  |  | 
19 | COc1ccc(S(=O)(=O)CC(F)Cn2c3ccc(Br)cc3c3cc(Br)ccc32)cc1 (centres unmarked) [S83] | 12.5 (X10E06)/mm3 | 1.0 | 1.01 |  |  | 
20 | COc1cccc(NC(SC)C(=O)Cn2c3ccc(Br)cc3c3cc(Br)ccc32)c1 (centres unmarked) [S4] | 11.7 (X10E06)/mm3 | 1.4 | 1.01 |  |  | 
21 | Nc1ccc[n+](CC(O)Cn2c3ccc(Br)cc3c3cc(Br)ccc32)c1 (centres unmarked) [S6] | 8.4 (X10E06)/mm3 | 1.4 |  |  |  | no rebound at all
22 | COC(=O)NC(=O)Cn1c2ccc(Br)cc2c2cc(Br)ccc21 [S234] | 17.8 (X10E06)/mm3 | 1.0 | 0.93 |  |  | 
23 | Cl.NCC(F)Cn1c2ccc(Br)cc2c2cc(Br)ccc21 (centres unmarked) [S217] | 12.3 (X10E06)/mm3 | 2.6 | 0.89 |  |  | 
24 | [N-]=[N+]=NCC(F)Cn1c2ccc(Br)cc2c2cc(Br)ccc21 (centres unmarked) [S189] | 6.9 (X10E06)/mm3 | 3.6 | 1.06 |  |  | 
25 | COc1cccc(S(=O)(=O)CC(F)Cn2c3ccc(Br)cc3c3cc(Br)ccc32)c1 (centres unmarked) [S81] | 12.6 (X10E06)/mm3 | 1.2 | 0.96 |  |  | 
26 | C#CCN(C)[C@H](C)Cc1ccccc1 [S117, Selegiline, reference compound] | 8.1 (X10E06)/mm3 | 1.0 |  |  |  | no rebound at all
27 | Brc1ccc2c(c1)c1cc(Br)ccc1n2CCCNc1ccccc1 [S33] | 11.6 (X10E06)/mm3 | 2.8 | 1.12 |  |  | 
28 | O=S(=O)(CC(F)Cn1c2ccc(Br)cc2c2cc(Br)ccc21)c1ccccc1 (centres unmarked) [S53] | 17.1 (X10E06)/mm3 | 1.4 | 1.05 |  |  | 
29 | COc1cccc(N2CC(Cn3c4ccc(Br)cc4c4cc(Br)ccc43)OC2=O)c1 (centres unmarked) [S12] | 10.8 (X10E06)/mm3 | 2.4 | 1.24 |  |  | 
30 | O=S(=O)(CC(F)Cn1c2ccc(Br)cc2c2cc(Br)ccc21)c1ccc(O)cc1 (centres unmarked) [S103] | 7.0 (X10E06)/mm3 | 1.9 | 0.97 |  |  | 
31 | COc1cccc(N(CC(O)Cn2c3ccc(Br)cc3c3cc(Br)ccc32)S(=O)(=O)C(F)(F)F)c1 (centres unmarked) [S244] | 11.6 (X10E06)/mm3 | 1.1 |  |  |  | 
